In ChEMBL document CHEMBL3525920, “CYP4F enzymes are responsible for the elimination of fingolimod (FTY720), a novel treatment of relapsing multiple sclerosis” (Drug Metab Dispos, 2011):

Assays:
[1] = target: T1, Cytochrome P450 1A2 (Homo sapiens, UniProt P05177); test: Activity at human recombinant CYP1A2 expressed in baculovirus-infected BTI-TN-5B1-4 insect cell microsomes assessed as metabolite formation at 5 to 100 uM after 30 mins by HPLC-RA analysis; type: ADME; settings: bti-tn-5b1-4, 0.5 h
T1 sequence (P05177 whole entry): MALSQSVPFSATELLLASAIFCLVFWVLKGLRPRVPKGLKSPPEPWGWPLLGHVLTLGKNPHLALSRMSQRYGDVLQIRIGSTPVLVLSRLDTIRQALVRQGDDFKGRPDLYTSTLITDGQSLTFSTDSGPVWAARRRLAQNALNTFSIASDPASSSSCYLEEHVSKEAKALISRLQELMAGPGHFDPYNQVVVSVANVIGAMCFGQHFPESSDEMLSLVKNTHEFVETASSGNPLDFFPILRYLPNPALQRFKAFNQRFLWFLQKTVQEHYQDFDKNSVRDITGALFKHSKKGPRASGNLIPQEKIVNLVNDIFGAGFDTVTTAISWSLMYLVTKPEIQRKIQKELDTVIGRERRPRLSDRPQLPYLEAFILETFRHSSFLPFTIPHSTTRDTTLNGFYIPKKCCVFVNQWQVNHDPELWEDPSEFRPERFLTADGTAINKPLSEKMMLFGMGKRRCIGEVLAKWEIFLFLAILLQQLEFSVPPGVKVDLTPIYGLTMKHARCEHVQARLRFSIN

[2] = target: T2, Cytochrome P450 4F2 (Homo sapiens, UniProt P78329); test: Activity at human recombinant CYP4F2 expressed in baculovirus-infected BTI-TN-5B1-4 insect cell microsomes at 10 uM by HPLC-RA analysis in presence of CYP4F2 and CYP4F12 inhibitor ketoconazole; type: ADME; settings: bti-tn-5b1-4, 10 µM
T2 sequence (P78329 whole entry): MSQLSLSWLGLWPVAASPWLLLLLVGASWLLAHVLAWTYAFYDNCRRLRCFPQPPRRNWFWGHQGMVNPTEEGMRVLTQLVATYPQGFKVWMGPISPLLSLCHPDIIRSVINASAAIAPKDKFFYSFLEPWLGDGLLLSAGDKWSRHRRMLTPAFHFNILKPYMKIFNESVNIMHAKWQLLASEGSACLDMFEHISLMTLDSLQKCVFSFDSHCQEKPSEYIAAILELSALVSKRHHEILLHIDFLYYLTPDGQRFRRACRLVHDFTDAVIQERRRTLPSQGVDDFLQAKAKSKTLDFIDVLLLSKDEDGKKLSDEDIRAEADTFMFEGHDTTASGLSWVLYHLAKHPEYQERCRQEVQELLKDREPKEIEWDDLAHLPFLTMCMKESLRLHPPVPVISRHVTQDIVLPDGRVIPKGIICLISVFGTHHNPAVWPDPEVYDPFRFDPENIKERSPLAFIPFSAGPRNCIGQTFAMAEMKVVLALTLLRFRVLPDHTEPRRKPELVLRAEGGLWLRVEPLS

[3] = target: T3, Cytochrome P450 3A5 (Homo sapiens, UniProt P20815); test: Activity at CYP3A5 in human liver microsomes isolated from donors assessed as metabolite formation after 24 mins by HPLC-RA analysis; type: ADME; settings: 0.4 h
T3 sequence (P20815 whole entry): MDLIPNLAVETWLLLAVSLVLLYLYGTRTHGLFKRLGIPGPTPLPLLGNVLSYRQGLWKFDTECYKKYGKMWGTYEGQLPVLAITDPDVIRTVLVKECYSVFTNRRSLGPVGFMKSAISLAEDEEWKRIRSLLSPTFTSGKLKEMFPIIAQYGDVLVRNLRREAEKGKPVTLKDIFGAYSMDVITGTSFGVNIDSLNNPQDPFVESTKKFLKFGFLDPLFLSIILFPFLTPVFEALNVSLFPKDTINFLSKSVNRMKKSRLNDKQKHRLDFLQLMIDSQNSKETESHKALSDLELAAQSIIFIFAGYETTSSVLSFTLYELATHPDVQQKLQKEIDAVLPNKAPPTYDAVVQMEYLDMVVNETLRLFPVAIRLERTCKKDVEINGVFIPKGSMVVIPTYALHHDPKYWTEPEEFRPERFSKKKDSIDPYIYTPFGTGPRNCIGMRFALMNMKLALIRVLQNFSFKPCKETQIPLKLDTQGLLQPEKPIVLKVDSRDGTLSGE

[4] = target: Cytochrome P450 4F12 (Homo sapiens, UniProt Q9HCS2); test: Activity at human recombinant CYP4F12 expressed in baculovirus-infected BTI-TN-5B1-4 insect cell microsomes assessed as metabolite formation at 5 to 100 uM after 30 mins by HPLC-RA analysis; type: ADME; settings: bti-tn-5b1-4, 0.5 h
Sequence of Cytochrome P450 4F12 (Q9HCS2 whole entry): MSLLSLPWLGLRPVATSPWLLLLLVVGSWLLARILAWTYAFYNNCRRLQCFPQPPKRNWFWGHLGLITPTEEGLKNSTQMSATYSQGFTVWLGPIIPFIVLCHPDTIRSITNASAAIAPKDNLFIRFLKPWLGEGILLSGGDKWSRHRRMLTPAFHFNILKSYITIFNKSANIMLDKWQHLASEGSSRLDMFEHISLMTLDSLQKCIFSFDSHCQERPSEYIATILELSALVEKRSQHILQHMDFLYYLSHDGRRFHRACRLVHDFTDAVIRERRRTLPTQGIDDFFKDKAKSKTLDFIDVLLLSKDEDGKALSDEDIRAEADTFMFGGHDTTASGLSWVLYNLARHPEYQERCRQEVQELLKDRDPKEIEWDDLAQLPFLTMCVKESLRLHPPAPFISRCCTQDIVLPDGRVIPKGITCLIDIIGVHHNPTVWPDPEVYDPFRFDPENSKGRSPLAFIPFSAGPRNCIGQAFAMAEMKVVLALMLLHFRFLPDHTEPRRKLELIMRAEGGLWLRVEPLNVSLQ

[5] = tested on: Liver microsome; test: Drug metabolism in human liver microsomes assessed as total metabolite formation at 1 to 50 uM after 20 mins by HPLC-RA analysis in presence of irreversible CYP3A inhibitor azamulin; type: ADME
[6] = Retention time of the compound by long gradient-based HPLC-RA analysis; type: physicochemical
[7] = target: Cytochrome P450 2C8 (Homo sapiens, UniProt P10632); test: Activity at human recombinant CYP2C8 expressed in baculovirus-infected BTI-TN-5B1-4 insect cell microsomes assessed as metabolite formation at 5 to 100 uM after 30 mins by HPLC-RA analysis; type: ADME; settings: bti-tn-5b1-4, 0.5 h
Sequence of Cytochrome P450 2C8 (P10632 whole entry): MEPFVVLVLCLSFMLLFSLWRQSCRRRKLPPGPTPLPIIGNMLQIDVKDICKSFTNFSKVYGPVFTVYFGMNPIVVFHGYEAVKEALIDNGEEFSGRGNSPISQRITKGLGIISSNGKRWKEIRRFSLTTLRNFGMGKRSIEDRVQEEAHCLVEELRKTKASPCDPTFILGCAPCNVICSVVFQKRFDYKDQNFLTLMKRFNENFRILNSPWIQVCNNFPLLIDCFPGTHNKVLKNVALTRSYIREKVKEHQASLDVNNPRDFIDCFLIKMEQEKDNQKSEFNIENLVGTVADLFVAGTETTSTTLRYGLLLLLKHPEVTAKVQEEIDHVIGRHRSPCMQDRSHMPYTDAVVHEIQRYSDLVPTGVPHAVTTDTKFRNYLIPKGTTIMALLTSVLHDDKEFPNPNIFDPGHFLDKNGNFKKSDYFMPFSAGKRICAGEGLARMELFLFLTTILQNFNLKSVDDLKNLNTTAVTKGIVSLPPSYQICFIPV

[8] = target: T1, Cytochrome P450 1A2; test: Activity at CYP1A2 in human liver microsomes isolated from donors assessed as metabolite formation after 24 mins by HPLC-RA analysis; type: ADME; settings: 0.4 h
[9] = tested on: Liver microsome; test: Drug metabolism in human liver microsomes assessed as total metabolite formation at 1 to 50 uM after 20 mins by HPLC-RA analysis in presence of mechanism-based CYP2E1 inhibitor DETC and NADPH; type: ADME
[10] = target: Cytochrome P450 2C9 (Homo sapiens, UniProt P11712); test: Activity at CYP2C9 in human liver microsomes isolated from donors assessed as metabolite formation after 24 mins by HPLC-RA analysis; type: ADME; settings: 0.4 h
Sequence of Cytochrome P450 2C9 (P11712 whole entry): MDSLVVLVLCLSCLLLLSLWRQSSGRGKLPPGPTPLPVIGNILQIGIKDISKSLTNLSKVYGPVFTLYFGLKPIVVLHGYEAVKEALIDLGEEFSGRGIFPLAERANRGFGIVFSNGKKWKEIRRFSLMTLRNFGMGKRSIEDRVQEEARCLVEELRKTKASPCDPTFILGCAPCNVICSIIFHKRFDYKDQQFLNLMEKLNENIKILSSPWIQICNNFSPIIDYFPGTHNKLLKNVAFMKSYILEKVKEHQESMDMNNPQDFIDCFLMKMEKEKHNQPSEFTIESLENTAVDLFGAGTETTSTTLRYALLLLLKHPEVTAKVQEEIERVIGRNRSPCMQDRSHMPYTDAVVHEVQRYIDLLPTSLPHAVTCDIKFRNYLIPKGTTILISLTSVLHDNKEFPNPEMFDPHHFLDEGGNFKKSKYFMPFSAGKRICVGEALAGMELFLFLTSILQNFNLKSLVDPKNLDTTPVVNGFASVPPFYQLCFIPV

[11] = target: Cytochrome P450 1A1 (Homo sapiens, UniProt P04798); test: Activity at human recombinant CYP1A1 expressed in baculovirus-infected BTI-TN-5B1-4 insect cell microsomes assessed as metabolite formation at 5 to 100 uM after 30 mins by HPLC-RA analysis; type: ADME; settings: bti-tn-5b1-4, 0.5 h
[12] = Retention time of the compound by symmetry C18 column based LC-MS analysis; type: physicochemical
[13] = Activity at CYP4F in human liver microsomes assessed as metabolite formation after 15 mins measured per mg protein by Eadie-Hofstee plot analysis; type: ADME; settings: 0.25 h
[14] = target: T3, Cytochrome P450 3A5; test: Activity at human recombinant CYP3A5 expressed in baculovirus-infected BTI-TN-5B1-4 insect cell microsomes assessed as metabolite formation at 5 to 100 uM after 30 mins by HPLC-RA analysis; type: ADME; settings: bti-tn-5b1-4, 0.5 h
[15] = target: T2, Cytochrome P450 4F2; test: Activity at human recombinant CYP4F2 expressed in baculovirus-infected BTI-TN-5B1-4 insect cell microsomes assessed as intrinsic clearance for metabolite formation after 15 mins measured per nmol of P450 by Eadie-Hofstee plot analysis; type: ADME; settings: bti-tn-5b1-4, 0.25 h
[16] = target: Cytochrome P450 3A7 (Homo sapiens, UniProt P24462); test: Activity at human recombinant CYP3A7 expressed in baculovirus-infected BTI-TN-5B1-4 insect cell microsomes assessed as metabolite formation at 5 to 100 uM after 30 mins by HPLC-RA analysis; type: ADME; settings: bti-tn-5b1-4, 0.5 h
Sequence of Cytochrome P450 3A7 (P24462 whole entry): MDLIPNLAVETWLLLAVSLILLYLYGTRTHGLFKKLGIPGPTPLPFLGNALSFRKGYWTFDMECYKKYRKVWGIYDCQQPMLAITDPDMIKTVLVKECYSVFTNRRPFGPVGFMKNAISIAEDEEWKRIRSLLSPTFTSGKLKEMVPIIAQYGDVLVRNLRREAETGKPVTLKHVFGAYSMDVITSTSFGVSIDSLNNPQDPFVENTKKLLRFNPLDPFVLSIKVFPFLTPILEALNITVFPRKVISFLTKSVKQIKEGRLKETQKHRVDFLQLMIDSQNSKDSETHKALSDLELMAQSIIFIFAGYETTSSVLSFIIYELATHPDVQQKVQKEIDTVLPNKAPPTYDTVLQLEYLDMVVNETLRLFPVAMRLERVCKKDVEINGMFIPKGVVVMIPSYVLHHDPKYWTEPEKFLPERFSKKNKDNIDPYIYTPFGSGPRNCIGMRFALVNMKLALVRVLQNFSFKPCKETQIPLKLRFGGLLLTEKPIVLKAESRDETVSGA

[17] = target: Cytochrome P450 2D6 (Homo sapiens, UniProt P10635); test: Activity at CYP2D6 in human liver microsomes isolated from donors assessed as metabolite formation after 24 mins by HPLC-RA analysis; type: ADME; settings: 0.4 h
Sequence of Cytochrome P450 2D6 (P10635 whole entry): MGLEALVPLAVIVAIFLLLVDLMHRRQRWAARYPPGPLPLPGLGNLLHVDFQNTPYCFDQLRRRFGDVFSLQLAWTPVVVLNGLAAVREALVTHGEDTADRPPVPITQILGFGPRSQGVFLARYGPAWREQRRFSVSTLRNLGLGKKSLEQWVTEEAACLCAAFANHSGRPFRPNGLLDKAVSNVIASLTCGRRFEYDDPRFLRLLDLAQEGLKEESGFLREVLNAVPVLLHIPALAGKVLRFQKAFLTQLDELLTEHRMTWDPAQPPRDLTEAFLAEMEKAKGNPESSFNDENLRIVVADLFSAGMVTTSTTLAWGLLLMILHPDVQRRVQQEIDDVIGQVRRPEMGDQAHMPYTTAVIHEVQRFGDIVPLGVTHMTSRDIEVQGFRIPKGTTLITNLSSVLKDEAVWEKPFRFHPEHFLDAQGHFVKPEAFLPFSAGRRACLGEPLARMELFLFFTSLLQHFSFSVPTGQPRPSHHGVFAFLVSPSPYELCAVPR

[18] = Activity at CYP4F in human liver microsomes assessed as metabolite formation after 15 mins by Eadie-Hofstee plot analysis; type: ADME; settings: 0.25 h
[19] = target: Cytochrome P450 1B1 (Homo sapiens, UniProt Q16678); test: Activity at human recombinant CYP1B1 expressed in baculovirus-infected BTI-TN-5B1-4 insect cell microsomes assessed as metabolite formation at 5 to 100 uM after 30 mins by HPLC-RA analysis; type: ADME; settings: bti-tn-5b1-4, 0.5 h
Sequence of Cytochrome P450 1B1 (Q16678 whole entry): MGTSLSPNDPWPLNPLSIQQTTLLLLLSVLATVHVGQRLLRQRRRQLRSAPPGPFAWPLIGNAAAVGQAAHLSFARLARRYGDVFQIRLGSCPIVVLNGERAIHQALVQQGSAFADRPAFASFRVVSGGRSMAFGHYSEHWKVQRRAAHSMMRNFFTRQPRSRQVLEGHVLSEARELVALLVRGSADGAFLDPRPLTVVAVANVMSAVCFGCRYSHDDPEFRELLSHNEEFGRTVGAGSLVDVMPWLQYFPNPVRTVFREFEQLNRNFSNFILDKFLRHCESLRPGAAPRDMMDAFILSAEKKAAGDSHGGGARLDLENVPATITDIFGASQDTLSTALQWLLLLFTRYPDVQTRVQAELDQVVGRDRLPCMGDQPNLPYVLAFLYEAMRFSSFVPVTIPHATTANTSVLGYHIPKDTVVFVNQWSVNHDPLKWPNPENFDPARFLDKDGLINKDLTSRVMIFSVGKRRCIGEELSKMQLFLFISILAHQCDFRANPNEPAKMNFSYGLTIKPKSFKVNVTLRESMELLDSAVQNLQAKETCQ

[20] = tested on: Liver microsome; test: Drug metabolism in human liver microsomes assessed as total metabolite formation at 1 to 50 uM after 20 mins by HPLC-RA analysis in presence of CYP3A4 inhibitor ketoconazole; type: ADME
[21] = tested on: Liver microsome; test: Drug metabolism in human liver microsomes assessed as total metabolite formation at 1 to 50 uM after 20 mins by HPLC-RA analysis in presence of CYP2D6 inhibitor quinidine; type: ADME
[22] = tested on: Liver microsome; test: Drug metabolism in human liver microsomes assessed as total metabolite formation at 1 to 50 uM after 20 mins by HPLC-RA analysis in presence of CYP2C19 inhibitor tranylcypromine; type: ADME
[23] = target: Cytochrome P450 2A6 (Homo sapiens, UniProt P11509); test: Activity at human recombinant CYP2A6 expressed in baculovirus-infected BTI-TN-5B1-4 insect cell microsomes assessed as metabolite formation at 5 to 100 uM after 30 mins by HPLC-RA analysis; type: ADME; settings: bti-tn-5b1-4, 0.5 h
[24] = target: Cytochrome P450 2E1 (Homo sapiens, UniProt P05181); test: Activity at human recombinant CYP2E1 expressed in baculovirus-infected BTI-TN-5B1-4 insect cell microsomes assessed as metabolite formation at 5 to 100 uM after 30 mins by HPLC-RA analysis; type: ADME; settings: bti-tn-5b1-4, 0.5 h
Sequence of Cytochrome P450 2E1 (P05181 whole entry): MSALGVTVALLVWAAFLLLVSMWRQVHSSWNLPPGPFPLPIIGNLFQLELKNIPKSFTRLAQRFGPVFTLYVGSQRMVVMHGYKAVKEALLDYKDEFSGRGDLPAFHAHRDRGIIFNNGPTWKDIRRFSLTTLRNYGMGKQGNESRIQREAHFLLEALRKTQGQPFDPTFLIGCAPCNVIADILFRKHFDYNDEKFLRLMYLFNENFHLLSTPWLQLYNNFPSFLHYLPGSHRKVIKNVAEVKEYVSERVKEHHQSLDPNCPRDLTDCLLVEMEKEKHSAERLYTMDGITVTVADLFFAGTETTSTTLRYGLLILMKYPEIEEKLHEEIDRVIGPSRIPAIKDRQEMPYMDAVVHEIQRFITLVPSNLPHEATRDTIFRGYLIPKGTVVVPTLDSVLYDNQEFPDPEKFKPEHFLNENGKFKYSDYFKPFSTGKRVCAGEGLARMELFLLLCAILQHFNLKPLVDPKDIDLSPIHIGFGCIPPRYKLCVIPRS

[25] = target: Cytochrome P450 2J2 (Homo sapiens, UniProt P51589); test: Activity at human recombinant CYP2J2 expressed in baculovirus-infected BTI-TN-5B1-4 insect cell microsomes assessed as metabolite formation at 5 to 100 uM after 30 mins by HPLC-RA analysis; type: ADME; settings: bti-tn-5b1-4, 0.5 h

With `CCCCCCCCc1ccc(CC[14C](N)(CO)CO)cc1.Cl` the Drug metabolism [1] was “metabolite_not_detected”, the Drug metabolism [2] was “metabolite_not_detected” and the Drug metabolism [3] was “metabolite_not_detected”. The Drug metabolism [4] was “metabolite_detected”, the Drug metabolism [5] was “metabolite_not_detected” and the Retention_time [6] was 41.9 min. The Drug metabolism [7] was “metabolite_not_detected”, the Drug metabolism [8] was “metabolite_not_detected” and the Drug metabolism [9] was “metabolite_detected”. The Drug metabolism [10] was “metabolite_not_detected”, the Drug metabolism [11] was “metabolite_not_detected” and the Retention_time [12] was 42.4 min. The Vmax [13] was 847 pmol/min, the Drug metabolism [14] was “metabolite_not_detected” and the CL [15] was 23 µL/min. The Drug metabolism [16] was “metabolite_not_detected”, the Drug metabolism [17] was “metabolite_not_detected” and the Km [18] was 183 µM. For the same molecule, the Drug metabolism [19] was “metabolite_not_detected”, the Drug metabolism [20] was “metabolite_not_detected” and the Drug metabolism [21] was “metabolite_detected”. For the same molecule, the Drug metabolism [22] was “metabolite_detected”, the Drug metabolism [23] was “metabolite_not_detected” and the Drug metabolism [24] was “metabolite_detected”. The Drug metabolism [25] was “metabolite_not_detected”.
